Measurements from US20230111310A1, “CARBOXYLIC ACID DERIVATIVE-SUBSTITUTED IMINO ARYL COMPOUND, PREPARATION METHOD THEREFOR, HERBICIDAL COMPOSITION AND USE THEREOF” (Qingdao Kingagroot Chemical Compound Co., Ltd., priority 2020, published 2023).

Experiments:
Assay in all cases: Weeding effect in post-emergence stage
Assay type in all cases: in vivo
Echinochloa crusgalli = settings: for Weeding effect in post-emergence stage, Echinochloa crusgalli: level of fresh weight growth control rate; for Weeding effect in post-emergence stage, Echinochloa crusgalli (level): fresh weight control rate level
Procedure, shortened: (§1)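 Pot-grown weeds were sprayed at the 2-3 leaf stage, 2 weeks after sowing, with compound in acetone plus Tween 80 and 1.5 liter/ha methyl oleate emulsifiable concentrate, diluted in water. Doses were 500, 250, 125, 60, 30, 15, 7.5 g/ha. Growth control was scored after 3 weeks in greenhouse; mean of three replicates.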

Alopecurus japonicus = settings: for Weeding effect in post-emergence stage, Alopecurus japonicus: level of fresh weight growth control rate; for Weeding effect in post-emergence stage, Alopecurus japonicus (level): fresh weight control rate level
Procedure, shortened: as §1

Abutilon theophrasti = settings: for Weeding effect in post-emergence stage, Abutilon theophrasti: level of fresh weight growth control rate; for Weeding effect in post-emergence stage, Abutilon theophrasti (level): fresh weight control rate level
Procedure, shortened: as §1

Digitaria sanguinalis = settings: for Weeding effect in post-emergence stage, Digitaria sanguinalis: level of fresh weight growth control rate; for Weeding effect in post-emergence stage, Digitaria sanguinalis (level): fresh weight control rate level
Procedure, shortened: as §1

Setaria viridis = settings: for Weeding effect in post-emergence stage, Setaria viridis: level of fresh weight growth control rate; for Weeding effect in post-emergence stage, Setaria viridis (level): fresh weight control rate level
Procedure, shortened: as §1

Eleusine indica = settings: for Weeding effect in post-emergence stage, Eleusine indica: level of fresh weight growth control rate; for Weeding effect in post-emergence stage, Eleusine indica (level): fresh weight control rate level
Procedure, shortened: as §1

| Compound | Weeding effect in post-emergence stage, Echinochloa crusgalli (Echinochloa crusgalli; Dose 15 g/ha) | Weeding effect in post-emergence stage, Alopecurus japonicus (Alopecurus japonicus; Dose 15 g/ha) | Weeding effect in post-emergence stage, Abutilon theophrasti (Abutilon theophrasti; Dose 15 g/ha) | Weeding effect in post-emergence stage, Digitaria sanguinalis (Digitaria sanguinalis; Dose 15 g/ha) | Weeding effect in post-emergence stage, Setaria viridis (Setaria viridis; Dose 15 g/ha) | Weeding effect in post-emergence stage, Eleusine indica (Eleusine indica; Dose 15 g/ha) | Weeding effect in post-emergence stage, Echinochloa crusgalli (level) (Echinochloa crusgalli; Dose 15 g/ha) | Weeding effect in post-emergence stage, Alopecurus japonicus (level) (Alopecurus japonicus; Dose 15 g/ha) | Weeding effect in post-emergence stage, Abutilon theophrasti (level) (Abutilon theophrasti; Dose 15 g/ha) | Weeding effect in post-emergence stage, Digitaria sanguinalis (level) (Digitaria sanguinalis; Dose 15 g/ha) | Weeding effect in post-emergence stage, Setaria viridis (level) (Setaria viridis; Dose 15 g/ha) | Weeding effect in post-emergence stage, Eleusine indica (level) (Eleusine indica; Dose 15 g/ha) | further results |
| --- | --- | --- | --- | --- | --- | --- | --- | --- | --- | --- | --- | --- | --- |
| C[C@@H](O/N=C/c1cc(-n2c(=O)n(C)c(=S)n(C)c2=O)c(F)cc1Cl)C(=O)OCc1ccncc1 [60(R)] | 5 (Level 5: growth control rate is above 85%) | 4 (Level 4: growth control rate is greater than or equal to 60% and less than 85%) | 5 (Level 5: growth control rate is above 85%) | 5 (Level 5: growth control rate is above 85%) | 5 (Level 5: growth control rate is above 85%) | 5 (Level 5: growth control rate is above 85%) |  |  |  |  |  |  |  |
| COC(=O)[C@H](O/N=C/c1cc(-n2c(=O)cc(C(F)(F)F)n(C)c2=O)c(F)cc1Cl)C1CC1 [456(R)] |  |  |  |  |  |  |  |  |  |  |  |  | Weeding effect in post-emergence stage, Echinochloa crusgalli (level) (Echinochloa crusgalli; Dose 30 g/ha): 5 (Level 5: growth control rate is above 85%); Weeding effect in post-emergence stage, Alopecurus japonicus (level) (Alopecurus japonicus; Dose 30 g/ha): 5 (Level 5: growth control rate is above 85%); Weeding effect in post-emergence stage, Abutilon theophrasti (level) (Abutilon theophrasti; Dose 30 g/ha): 5 (Level 5: growth control rate is above 85%); Weeding effect in post-emergence stage, Digitaria sanguinalis (level) (Digitaria sanguinalis; Dose 30 g/ha): 5 (Level 5: growth control rate is above 85%); Weeding effect in post-emergence stage, Setaria viridis (level) (Setaria viridis; Dose 30 g/ha): 5 (Level 5: growth control rate is above 85%); Weeding effect in post-emergence stage, Eleusine indica (level) (Eleusine indica; Dose 30 g/ha): 5 (Level 5: growth control rate is above 85%) |
| CCCCCCOC(=O)C(C)O/N=C/c1cc(-n2c(=O)cc(C(F)(F)F)n(C)c2=O)c(F)cc1Cl (racemic) [Compound 204] | 5 (Level 5: growth control rate is above 85%) | 5 (Level 5: growth control rate is above 85%) | 5 (Level 5: growth control rate is above 85%) | 5 (Level 5: growth control rate is above 85%) | 5 (Level 5: growth control rate is above 85%) | 5 (Level 5: growth control rate is above 85%) |  |  |  |  |  |  |  |
| COC(=O)CSC(=O)C(C)O/N=C/c1cc(-n2c(=O)cc(C(F)(F)F)n(C)c2=O)c(F)cc1Cl (stereo not drawn) [Compound 406] |  |  |  |  |  |  | 5 (Level 5: growth control rate is above 85%) | 4 (Level 4: growth control rate is greater than or equal to 60% and less than 85%) | 5 (Level 5: growth control rate is above 85%) | 5 (Level 5: growth control rate is above 85%) | 5 (Level 5: growth control rate is above 85%) | 5 (Level 5: growth control rate is above 85%) |  |
| CC(C)=NOCCOC(=O)C(C)O/N=C/c1cc(-n2c(=O)cc(C(F)(F)F)n(C)c2=O)c(F)cc1Cl (stereo not drawn) [Compound 259] |  |  |  |  |  |  |  |  |  |  |  |  | Weeding effect in post-emergence stage, Echinochloa crusgalli (Echinochloa crusgalli; Dose 30 g/ha): 5 (Level 5: growth control rate is above 85%); Weeding effect in post-emergence stage, Alopecurus japonicus (Alopecurus japonicus; Dose 30 g/ha): 5 (Level 5: growth control rate is above 85%); Weeding effect in post-emergence stage, Abutilon theophrasti (Abutilon theophrasti; Dose 30 g/ha): 5 (Level 5: growth control rate is above 85%); Weeding effect in post-emergence stage, Digitaria sanguinalis (Digitaria sanguinalis; Dose 30 g/ha): 5 (Level 5: growth control rate is above 85%); Weeding effect in post-emergence stage, Setaria viridis (Setaria viridis; Dose 30 g/ha): 5 (Level 5: growth control rate is above 85%); Weeding effect in post-emergence stage, Eleusine indica (Eleusine indica; Dose 30 g/ha): 5 (Level 5: growth control rate is above 85%) |
| C[C@@H](O/N=C/c1cc(-n2c(=O)n(C)c(=S)n(C)c2=O)c(F)cc1Cl)C(=O)OCc1cccnc1 [59(R)] | 5 (Level 5: growth control rate is above 85%) | 4 (Level 4: growth control rate is greater than or equal to 60% and less than 85%) | 5 (Level 5: growth control rate is above 85%) | 5 (Level 5: growth control rate is above 85%) | 5 (Level 5: growth control rate is above 85%) | 5 (Level 5: growth control rate is above 85%) |  |  |  |  |  |  |  |
| CSCOC(=O)[C@@H](C)O/N=C/c1cc(-n2c(=O)cc(C(F)(F)F)n(C)c2=O)c(F)cc1Cl [233(R)] | 5 (Level 5: growth control rate is above 85%) | 5 (Level 5: growth control rate is above 85%) | 5 (Level 5: growth control rate is above 85%) | 5 (Level 5: growth control rate is above 85%) | 5 (Level 5: growth control rate is above 85%) | 5 (Level 5: growth control rate is above 85%) |  |  |  |  |  |  |  |
| COC(=O)[C@@H](CC(C)C)O/N=C/c1cc(-n2c(=O)cc(C(F)(F)F)n(C)c2=O)c(F)cc1Cl [455(R)] |  |  |  |  |  |  | 5 (Level 5: growth control rate is above 85%) | 5 (Level 5: growth control rate is above 85%) | 5 (Level 5: growth control rate is above 85%) | 5 (Level 5: growth control rate is above 85%) | 5 (Level 5: growth control rate is above 85%) | 5 (Level 5: growth control rate is above 85%) |  |
| CCOC(=O)C(C)O/N=C/c1cc(-n2c(=O)cc(C(F)(F)F)n(C)c2=O)c(F)cc1Cl (racemic) [Compound 196] | 5 (Level 5: growth control rate is above 85%) | 5 (Level 5: growth control rate is above 85%) | 5 (Level 5: growth control rate is above 85%) | 5 (Level 5: growth control rate is above 85%) | 5 (Level 5: growth control rate is above 85%) | 5 (Level 5: growth control rate is above 85%) |  |  |  |  |  |  |  |
| CC(ON=Cc1cc(-n2c(=O)cc(C(F)(F)F)n(C)c2=O)c(F)cc1Cl)C(=O)NS(=O)(=O)CCl (stereo not drawn) [Compound 503] |  |  |  |  |  |  | 5 (Level 5: growth control rate is above 85%) | 5 (Level 5: growth control rate is above 85%) | 5 (Level 5: growth control rate is above 85%) | 5 (Level 5: growth control rate is above 85%) | 5 (Level 5: growth control rate is above 85%) | 5 (Level 5: growth control rate is above 85%) |  |
| CCOC(=O)C(C)=NOC(=O)C(C)ON=Cc1cc(-n2c(=O)cc(C(F)(F)F)n(C)c2=O)c(F)cc1Cl [254(R)] | 5 (Level 5: growth control rate is above 85%) | 5 (Level 5: growth control rate is above 85%) | 5 (Level 5: growth control rate is above 85%) | 5 (Level 5: growth control rate is above 85%) | 5 (Level 5: growth control rate is above 85%) | 5 (Level 5: growth control rate is above 85%) |  |  |  |  |  |  |  |
| COC(=O)[C@@H](C)O/N=C/c1cc(-n2c(=O)cc(C(F)(F)F)n(C)c2=S)c(F)cc1Br [394(R)] |  |  |  |  |  |  |  |  |  |  |  |  | Weeding effect in post-emergence stage, Echinochloa crusgalli (level) (Echinochloa crusgalli; Dose 60 g/ha): 5 (Level 5: growth control rate is above 85%); Weeding effect in post-emergence stage, Alopecurus japonicus (level) (Alopecurus japonicus; Dose 60 g/ha): 5 (Level 5: growth control rate is above 85%); Weeding effect in post-emergence stage, Abutilon theophrasti (level) (Abutilon theophrasti; Dose 60 g/ha): 5 (Level 5: growth control rate is above 85%); Weeding effect in post-emergence stage, Digitaria sanguinalis (level) (Digitaria sanguinalis; Dose 60 g/ha): 5 (Level 5: growth control rate is above 85%); Weeding effect in post-emergence stage, Setaria viridis (level) (Setaria viridis; Dose 60 g/ha): 5 (Level 5: growth control rate is above 85%); Weeding effect in post-emergence stage, Eleusine indica (level) (Eleusine indica; Dose 60 g/ha): 5 (Level 5: growth control rate is above 85%) |
| CCOC(=O)C(C)O/N=C/c1cc(-n2c(=O)n(C)c(=S)n(C)c2=O)c(F)cc1Cl (racemic) [Compound 2] | 5 (Level 5: growth control rate is above 85%) | 5 (Level 5: growth control rate is above 85%) | 5 (Level 5: growth control rate is above 85%) | 5 (Level 5: growth control rate is above 85%) | 5 (Level 5: growth control rate is above 85%) | 5 (Level 5: growth control rate is above 85%) |  |  |  |  |  |  |  |
| CC(=NOC(=O)C(C)ON=Cc1cc(-n2c(=O)cc(C(F)(F)F)n(C)c2=O)c(F)cc1Cl)C1CC1 (stereo not drawn) [Compound 450] |  |  |  |  |  |  | 5 (Level 5: growth control rate is above 85%) | 5 (Level 5: growth control rate is above 85%) | 5 (Level 5: growth control rate is above 85%) | 5 (Level 5: growth control rate is above 85%) | 5 (Level 5: growth control rate is above 85%) | 5 (Level 5: growth control rate is above 85%) |  |
| CON(C)C(=O)C(C)O/N=C/c1cc(-n2c(=O)cc(C(F)(F)F)n(C)c2=O)c(F)cc1Cl (stereo not drawn) [Compound 419] |  |  |  |  |  |  | 5 (Level 5: growth control rate is above 85%) | 5 (Level 5: growth control rate is above 85%) | 5 (Level 5: growth control rate is above 85%) | 5 (Level 5: growth control rate is above 85%) | 5 (Level 5: growth control rate is above 85%) | 5 (Level 5: growth control rate is above 85%) |  |
